# Source: article PMC13224100, “Esterase-Responsive Mitochondria-Targeted Hydropersulfide Donors Mitigate Doxorubicin Cardiotoxicity While Preserving Anticancer Activity” (Angewandte Chemie (International ed. in English), 2025)
# Marks after values point to notes of the source that are not given here.
# What was measured:
# [1] = Aqueous stability of RSSH precursors in PBS; format: physicochemical
# Method: We synthesized AST-2 as an esterase-sensitive RSSH donor via reaction of N-acetylpenicillamine methyl ester with methoxycarbonyl sulfenyl chloride in dichloromethane at 0 °C, affording the product in 72% yield (see Scheme S1). We first evaluated the aqueous stability of AST-2 in phosphate-buffered saline (PBS, pH 7.4) at 37 °C.
# APT-1 was synthesized in 93% overall yield via a one-pot two-step sequence: N-acetylpenicillamine methyl ester was reacted with chlorocarbonylsulfenyl chloride to afford an S-perthiocarbonyl chloride intermediate, which was subsequently treated with 2-acetoxy-N-methylethan-1-aminium chloride in the presence of triethylamine (see Supporting Information).
# We first evaluated the aqueous stability of the mitochondria-targeted analogs AST-2-TPP and APT-1-TPP. […] APT-1-TPP similarly retained excellent stability, with < 5% degradation over 41 h (Figure S1D).
# [2] = system: porcine liver esterase (PLE); assay: Quantification of RSSH release (RSS-HPE-AM yield) by HPLC; format: biochemical; details: pH 7.4 ammonium bicarbonate with DTPA, 37 °C; for RSSH yield (%) (formation of RSS-HPE-AM): HPE-IAM trapping; for RSSH yield (%) (formation of TPP-RSS-HPE-AM): trapping with 50 equiv of HPE-IAM
# Method: C. Quantification of RSSH Release by HPLC Analysis […]
# (PLE, 1 U/mL) in ammonium bicarbonate buffer (100 mM, pH 7.4) containing diethylenetriaminepentaacetic acid (DTPA, 100 µM) at 37 °C. At designated time points, 200 μL aliquots were withdrawn and immediately quenched by mixing with 200 μL o f i c e-cold 0.1% formic acid. Samples were analyzed by HPLC using the same method and conditions as described above. Quantification of the trapped product (RSS-HPE-AM) was carried out using a calibration curve generated in-house with authentic standards. All experiments were performed in triplicate (n = 3), and data are reported as mean ± standard deviation (SD). […]
# (§1) 0.1% formic acid. Samples were analyzed by Agilent HPLC with UV detection using a C18 reverse-phase column (Phenomenex Luna C18, 4.6 × 150 mm, 5 μm) at 25 °C with a flow rate of 1.0 mL/min and an injection volume of 20 μL. The gradient elution (all solvents v/v, containing 0.1% trifluoroacetic acid) was as follows: 0–10 min, linear gradient from 90% water / 10% acetonitrile to 50% water / 50% acetonitrile; 10–18 min, to 10% water / 90% acetonitrile; 18–20 min, held at 10% water / 90% acetonitrile; 20–25 min, return to 90% water / 10% acetonitrile.
# Absorbance was monitored at 275 nm. […]
# [3] = Stability of RSSH precursors with glutathione by HPLC; format: physicochemical; details: GSH 500 µM (5 equiv), PBS pH 7.4, 37 °C; for half-life at 100 µM: PBS with glutathione (500 µM), pH 7.4, precursor 100 µM, read-out: decomposition half-life (t1/2) in the presence of GSH; for decomposition half-life (t1/2) in the presence of GSH / decomposition rate constant in the presence of GSH: precursor 100 µM; for decomposition rate constant in the presence of GSH: in min-1
# Method: We next evaluated whether our newly developed precursors generate RSSH in the presence of thiols, which are abundant in biological systems. We examined their reactivity toward glutathione (GSH, 5 equiv) in PBS (pH 7.4, 37 °C), and precursor consumption was quantified by HPLC. […] We attribute this difference to their intrinsic reactivity. As shown previously,[23] AST donors can undergo nucleophilic attack either at the carbonyl carbon, producing the intended RSSH and a thiocarbonate byproduct (Scheme 3a, Path A), or at the disulfide bond, giving an unsymmetrical disulfide and a thiocarbonate intermediate (Scheme 3a, Path B). The higher electrophilicity of the perthiocarbonate carbonyl likely explains the faster consumption of AST derivatives. In contrast, and consistent with earlier studies,[24] APT-1 and APT-1-TPP react mainly through thiol–disulfide exchange (Scheme 3b, Path B), as attack at the perthiocarbamate carbonyl is disfavored due to its lower electrophilicity compared with the perthiocarbonate in AST donors. […]
# (n = 3), and data are reported as mean ± standard deviation (SD).
# Stability of RSSH Precursors with Glutathione by HPLC
# as §1, with “Stock solutions of RSSH precursor (10 mM in DMSO) and GSH (20 mM in PBS, pH 7.4) were prepared immediately prior to the assay. The RSSH precursor (100 µM) was incubated with GSH (500 µM) in phosphate-buffered saline (PBS, pH 7.4) at 37 °C. At designated time points, 200 μL aliquots were withdrawn and immediately quenched by mixing with an equal volume of ice-cold 0.1% formic” for “0.1% formic”
# Absorbance was monitored at 275 nm. The percentage of precursor remaining at each time point was calculated by comparing the absorbance at 275 nm to the initial value. All experiments were performed in triplicate (n = 3), and data are reported as mean ± standard deviation (SD).
# Figure S19. Stability profiles of (A) AST-2, (B) APT-1, (C) AST-2-TPP, and (D) APT-1-TPP in PBS, pH 7.4 at 37 °C in the presence of GSH. Decomposition rate constant for AST-2, APT-1, AST-2-TPP, and APT-1- […]
# Decomposition half-lives for AST-2, APT-1, AST-2-TPP, and APT-1-TPP are 8.6 ± 0.1 min, 39.7 ± 1.2 min, 6.3 ± 0.1 min, and 56.2 ± 4.0 min, respectively. Data are mean ± standard deviation (SD) (n = 3)
# (1 picture or pasted object on this page, not shown here)
SMILES,"decomposition (aqueous stability) ([1]; PBS, 37 °C, over 48 h)",RSSH yield (%) (formation of RSS-HPE-AM) [2],half-life at 100 µM [3],decomposition half-life (t1/2) in the presence of GSH [3],decomposition rate constant in the presence of GSH [3],"decomposition (aqueous stability) ([1]; PBS pH 7.4, 37 °C, over 7 h)",RSSH yield (%) (formation of TPP-RSS-HPE-AM) [2],RSSH yield (%) (formation of TPP-RSS-HPE-AM) ([2]; listed as AsT-2-TPP),"degradation (aqueous stability) ([1]; PBS pH 7.4, 37 °C, over 41 h)","decomposition (aqueous stability) ([1]; PBS pH 7.4, 37 °C, over 9 h)"
COC(=O)C(NC(C)=O)C(C)(C)SSC(=O)N(C)CCOC(C)=O (stereo not drawn) [APT-1],7%,92%,39.7 ± 1.2 min,40 min,0.01749 ± 0.00052,–,–,–,–,–
COC(=O)SSC(C)(C)C(NC(C)=O)C(=O)N(C)CCC[P+](c1ccccc1)(c1ccccc1)c1ccccc1 (stereo not drawn) [AST-2-TPP],–,–,6.3 ± 0.1 min,6 min,0.1094 ± 0.00183,ca. 20%,91%,91^b) %,–,–
CC(=O)NC(C(=O)N(C)CCC[P+](c1ccccc1)(c1ccccc1)c1ccccc1)C(C)(C)SSC(=O)N(C)CCOC(C)=O (stereo not drawn) [APT-1-TPP],–,95%,56.2 ± 4 min,56 min,0.01236 ± 0.00066,–,–,–,< 5%,–
COC(=O)SSC(C)(C)C(NC(C)=O)C(=O)OC (stereo not drawn) [AST-2],–,95%,8.6 ± 0.1 min,9 min,0.08081 ± 0.00105,–,–,–,–,22%
